The source of these data is paper PMC8009520, “Exploration of TRPM8 Binding Sites by β-Carboline-Based Antagonists and Their In Vitro Characterization and In Vivo Analgesic Activities” (Journal of Medicinal Chemistry, 2020).

Structures are written as SMILES. Several values for one entry are separate records, joined by “and”; a condition that tells them apart may be missing. Identical values can stand only once. Like-named read-outs stand apart in the source and are kept apart here. Where only a bound is given, the exact number is not on record here.

For one series, the target named is T1, hTRPV1 (Homo sapiens, UniProt Q8NER1).
T1 construct: expressed in transfected cells; host or cells: CHO-K1, stably transfected
As to the kind of experiment: Selectivity fluorimetric assay, CHO-K1 cells. It counts as cell-based. To be noted: capsaicine as reference agonist.

Series [1] addresses T2, rat isoform of TRPM8 channels (Rattus norvegicus, UniProt Q8R455).
T2 construct: expressed in transfected cells
As to the kind of experiment: Ca2+ fluorimetric assay, menthol-activated channel. The class given is cell-based. The protocol: TRPM8 blocker activity of all synthesized compounds was tested by Ca^2+ fluorimetric assays using HEK-293 cells stably expressing the rat isoform of TRPM8 channels, using menthol and AMTB as prototypical agonist and antagonist, respectively.
For measurement of the potency of the compounds, fluorimetric experiments were performed using HEK-293 cells (CRL-1573TM, American Type Culture Collection, LGC Promochem, Molsheim, France) that stably express rat TRPM8. The cells were seeded in 96-well plates (Corning Incorporated, Corning, NY) at a cell density of 40 000 cells 2 days before treatment. On the day of treatment, the medium was replaced with 100 μL of the dye loading solution Fluo-4 NW supplemented with probenecid 2.5 mM.
The tested molecules dissolved in DMSO were added at the desired concentrations, and the plates were incubated in darkness at 37 °C in a humidified atmosphere of 5% CO2 for 60 min. The fluorescence was measured using instrument settings appropriate for excitation at 485 nm and emission at 535 nm (POLARstar Omega BMG LABtech). A baseline recording of four cycles was recorded prior to stimulation with the agonist (100 μM menthol for TRPM8). The TRPM8 antagonist, 10 μM AMTB, was added to the medium containing the corresponding agonist to induce channel blockade. The changes in fluorescence intensity were recorded during 15 cycles more. The higher concentration of DMSO used in the experiment was added to the control wells. The cells’ fluorescence was measured before and after the addition of various concentrations of test compounds. The fluorescence values obtained are normalized to that prompted by the corresponding agonist (for channel activating compounds) or upon agonist and antagonist coexposure (for channel blocker compounds).

Another series has as its target T3, hNav1.7 (Homo sapiens, UniProt Q15858).
T3 construct: expressed in transfected cells; host or cells: HEK-293, stably transfected
Nature of the series: Selectivity fluorimetric assay, HEK-293 cells. The class given is cell-based. The following applies: for IC50: read-out: IC50, antagonistic activity over Nav1.7; for activity as agonist or antagonist on Nav1.7: veratridine as reference agonist.

In another series the target is T4, hTRPA1 (Homo sapiens, UniProt O75762).
T4 construct: expressed in transfected cells; host or cells: HEK-293, stably transfected
Nature of the series: Selectivity fluorimetric assay, HEK-293 cells. It counts as cell-based. To be noted: AITC as reference agonist.

Series [2] in a line: Time-course cis to trans epimerization stability (HPLC). The class given is physicochemical. To be noted: for conversion of cis isomer to trans isomer: during 60 min, regardless of the solvent used (PBS, methanol). The procedure: In this case, a different chemical approach is required because of the minor reactivity of anilines. Intermediates THBC 32a and 32b were coupled with 3CF3 or 2F or 4-F-phenyl isocyanate in basic medium of TEA. […] Absolute configuration was determined as described above. The formation of the cis intermediates, which was not observed with the N-benzyl or N-alkyl analogs, can be explained by the increased stability of the kinetic control species due to the higher rigidity of this structure. […] In addition, the corresponding C-11a epimers 36a′–38a′ could be obtained directly by reaction of 32b with the corresponding isocyanates and TEA at 60 °C for 30 min in 39–45% yields.
Figure S1: Time-course trans (36a’-38a’) / cis (36b-38b) HPLC peak area ratio in physiological
buffer (PBS, panel A) and methanol (Panel B).

A short description of series [3]: In vitro metabolic stability using liver microsomes. It counts as in vitro ADME, human. The following applies: 60 min with liver microsomes, no NADPH or UDP-GlcUA/NADPH. The protocol:
Compound 4 was used as reference, considering that its main pitfall was represented by metabolic instability that the newly synthesized compounds were aimed in overcoming. […] Each sample (2.5 mM) was incubated with 100 mM phosphate buffer (pH 7.4) and 20 mg/mL of liver microsomes (Thermo Fisher Scientific, Bremen, Germany). After preincubation in water bath for 5 min, the mixture was incubated with 20 mM NADPH (protocol I) at 37 °C for 60 min in a Thermomixer comfort (Eppendorf, Hamburg, Germany). For the measurement of UGT activity the microsomes were preincubated with alamethicin, which forms pores in microsomal membranes, promoting access of substrate and cofactor to UGT enzymes. Subsequently, each sample was incubated with 100 mM phosphate buffer, 500 mM magnesium chloride, 10 mM NADPH, and 20 mM UDP-GlcUA at 37 °C for 60 min. Finally, the reactions from both protocols (protocols I and II) were stopped by the addition of 200 μL of ice-cold methanol, and then samples were centrifuged at 10 000 rpm at 25 °C for 5 min (Eppendorf microcentrifuge 5424, Hamburg, Germany). The supernatants were collected and injected in UHPLC-PDA. The control at 0 min was obtained by addition of the organic solvent immediately after incubation with microsomes. […] The extent of metabolism is expressed as a percentage of the parent compound turnover using the following equation, as previously described:[43] […]

Where [4] appears, read: HEK-293 cells stably expressing rat TRPM8, menthol as agonist, mean ± SD of at least three measurements, read-out: IC50.
Setting [5] is: Table 2, Ca2+ fluorimetric assay, read-out: IC50 Ca2+.
[6] abbreviates: supplementary xlsx, read-out: rTRPM8 IC50 (calcium microfluorimetric assays).

T4 sequence (O75762 whole entry): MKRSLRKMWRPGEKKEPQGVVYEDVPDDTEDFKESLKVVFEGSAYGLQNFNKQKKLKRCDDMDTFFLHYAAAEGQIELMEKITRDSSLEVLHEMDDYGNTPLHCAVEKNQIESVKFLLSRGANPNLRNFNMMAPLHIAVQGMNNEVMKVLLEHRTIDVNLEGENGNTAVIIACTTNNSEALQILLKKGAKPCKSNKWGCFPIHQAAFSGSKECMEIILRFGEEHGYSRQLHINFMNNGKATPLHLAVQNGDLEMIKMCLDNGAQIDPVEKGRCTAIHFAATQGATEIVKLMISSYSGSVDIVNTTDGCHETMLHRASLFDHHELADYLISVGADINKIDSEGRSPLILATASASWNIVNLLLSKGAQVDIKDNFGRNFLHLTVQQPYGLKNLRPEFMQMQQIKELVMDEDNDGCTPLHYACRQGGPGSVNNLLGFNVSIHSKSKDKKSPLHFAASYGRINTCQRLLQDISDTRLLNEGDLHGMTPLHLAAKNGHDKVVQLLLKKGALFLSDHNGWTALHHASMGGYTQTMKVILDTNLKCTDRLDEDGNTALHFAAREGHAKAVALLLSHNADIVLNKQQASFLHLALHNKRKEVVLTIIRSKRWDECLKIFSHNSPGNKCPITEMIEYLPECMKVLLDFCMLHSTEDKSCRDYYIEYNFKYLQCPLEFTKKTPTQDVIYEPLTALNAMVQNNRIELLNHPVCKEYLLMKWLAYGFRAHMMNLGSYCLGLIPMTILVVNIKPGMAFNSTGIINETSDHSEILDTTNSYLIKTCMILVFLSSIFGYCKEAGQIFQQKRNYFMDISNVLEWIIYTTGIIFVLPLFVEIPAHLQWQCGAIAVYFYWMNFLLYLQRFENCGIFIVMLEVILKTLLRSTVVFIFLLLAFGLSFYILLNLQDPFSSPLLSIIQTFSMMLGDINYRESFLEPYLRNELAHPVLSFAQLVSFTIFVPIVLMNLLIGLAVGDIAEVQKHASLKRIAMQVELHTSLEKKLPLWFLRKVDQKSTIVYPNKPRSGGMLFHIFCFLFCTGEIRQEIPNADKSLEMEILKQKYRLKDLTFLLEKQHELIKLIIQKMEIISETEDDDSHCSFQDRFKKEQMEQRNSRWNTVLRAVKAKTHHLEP
T2 sequence (Q8R455 whole entry, canonical isoform): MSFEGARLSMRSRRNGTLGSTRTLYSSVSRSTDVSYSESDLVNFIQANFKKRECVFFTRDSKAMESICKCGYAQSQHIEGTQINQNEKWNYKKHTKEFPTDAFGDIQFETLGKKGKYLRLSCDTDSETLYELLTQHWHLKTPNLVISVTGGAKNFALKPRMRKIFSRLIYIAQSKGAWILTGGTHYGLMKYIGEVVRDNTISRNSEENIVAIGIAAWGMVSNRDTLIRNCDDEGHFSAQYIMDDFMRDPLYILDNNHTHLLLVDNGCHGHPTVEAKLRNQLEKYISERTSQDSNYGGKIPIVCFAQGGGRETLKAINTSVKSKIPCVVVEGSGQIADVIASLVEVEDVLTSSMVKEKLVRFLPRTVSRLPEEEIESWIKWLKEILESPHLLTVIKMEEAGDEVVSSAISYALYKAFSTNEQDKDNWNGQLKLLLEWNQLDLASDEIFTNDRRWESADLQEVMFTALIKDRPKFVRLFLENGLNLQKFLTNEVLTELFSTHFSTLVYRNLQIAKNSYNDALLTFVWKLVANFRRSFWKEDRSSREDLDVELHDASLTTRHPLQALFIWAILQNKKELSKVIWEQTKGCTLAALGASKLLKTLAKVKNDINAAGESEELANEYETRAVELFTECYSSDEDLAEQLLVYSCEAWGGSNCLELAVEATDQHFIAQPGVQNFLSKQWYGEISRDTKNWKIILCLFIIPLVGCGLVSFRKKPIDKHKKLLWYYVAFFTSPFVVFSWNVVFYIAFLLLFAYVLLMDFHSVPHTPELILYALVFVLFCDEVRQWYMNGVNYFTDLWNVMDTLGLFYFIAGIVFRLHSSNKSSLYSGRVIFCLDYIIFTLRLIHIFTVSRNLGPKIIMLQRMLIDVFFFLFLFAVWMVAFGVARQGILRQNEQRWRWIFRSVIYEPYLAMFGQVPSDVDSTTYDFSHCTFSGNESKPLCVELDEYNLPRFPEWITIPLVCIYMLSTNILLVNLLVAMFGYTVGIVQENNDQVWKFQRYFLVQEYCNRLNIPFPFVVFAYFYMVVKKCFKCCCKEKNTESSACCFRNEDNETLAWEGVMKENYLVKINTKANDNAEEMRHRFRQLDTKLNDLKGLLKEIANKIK
T3 sequence (Q15858 whole entry): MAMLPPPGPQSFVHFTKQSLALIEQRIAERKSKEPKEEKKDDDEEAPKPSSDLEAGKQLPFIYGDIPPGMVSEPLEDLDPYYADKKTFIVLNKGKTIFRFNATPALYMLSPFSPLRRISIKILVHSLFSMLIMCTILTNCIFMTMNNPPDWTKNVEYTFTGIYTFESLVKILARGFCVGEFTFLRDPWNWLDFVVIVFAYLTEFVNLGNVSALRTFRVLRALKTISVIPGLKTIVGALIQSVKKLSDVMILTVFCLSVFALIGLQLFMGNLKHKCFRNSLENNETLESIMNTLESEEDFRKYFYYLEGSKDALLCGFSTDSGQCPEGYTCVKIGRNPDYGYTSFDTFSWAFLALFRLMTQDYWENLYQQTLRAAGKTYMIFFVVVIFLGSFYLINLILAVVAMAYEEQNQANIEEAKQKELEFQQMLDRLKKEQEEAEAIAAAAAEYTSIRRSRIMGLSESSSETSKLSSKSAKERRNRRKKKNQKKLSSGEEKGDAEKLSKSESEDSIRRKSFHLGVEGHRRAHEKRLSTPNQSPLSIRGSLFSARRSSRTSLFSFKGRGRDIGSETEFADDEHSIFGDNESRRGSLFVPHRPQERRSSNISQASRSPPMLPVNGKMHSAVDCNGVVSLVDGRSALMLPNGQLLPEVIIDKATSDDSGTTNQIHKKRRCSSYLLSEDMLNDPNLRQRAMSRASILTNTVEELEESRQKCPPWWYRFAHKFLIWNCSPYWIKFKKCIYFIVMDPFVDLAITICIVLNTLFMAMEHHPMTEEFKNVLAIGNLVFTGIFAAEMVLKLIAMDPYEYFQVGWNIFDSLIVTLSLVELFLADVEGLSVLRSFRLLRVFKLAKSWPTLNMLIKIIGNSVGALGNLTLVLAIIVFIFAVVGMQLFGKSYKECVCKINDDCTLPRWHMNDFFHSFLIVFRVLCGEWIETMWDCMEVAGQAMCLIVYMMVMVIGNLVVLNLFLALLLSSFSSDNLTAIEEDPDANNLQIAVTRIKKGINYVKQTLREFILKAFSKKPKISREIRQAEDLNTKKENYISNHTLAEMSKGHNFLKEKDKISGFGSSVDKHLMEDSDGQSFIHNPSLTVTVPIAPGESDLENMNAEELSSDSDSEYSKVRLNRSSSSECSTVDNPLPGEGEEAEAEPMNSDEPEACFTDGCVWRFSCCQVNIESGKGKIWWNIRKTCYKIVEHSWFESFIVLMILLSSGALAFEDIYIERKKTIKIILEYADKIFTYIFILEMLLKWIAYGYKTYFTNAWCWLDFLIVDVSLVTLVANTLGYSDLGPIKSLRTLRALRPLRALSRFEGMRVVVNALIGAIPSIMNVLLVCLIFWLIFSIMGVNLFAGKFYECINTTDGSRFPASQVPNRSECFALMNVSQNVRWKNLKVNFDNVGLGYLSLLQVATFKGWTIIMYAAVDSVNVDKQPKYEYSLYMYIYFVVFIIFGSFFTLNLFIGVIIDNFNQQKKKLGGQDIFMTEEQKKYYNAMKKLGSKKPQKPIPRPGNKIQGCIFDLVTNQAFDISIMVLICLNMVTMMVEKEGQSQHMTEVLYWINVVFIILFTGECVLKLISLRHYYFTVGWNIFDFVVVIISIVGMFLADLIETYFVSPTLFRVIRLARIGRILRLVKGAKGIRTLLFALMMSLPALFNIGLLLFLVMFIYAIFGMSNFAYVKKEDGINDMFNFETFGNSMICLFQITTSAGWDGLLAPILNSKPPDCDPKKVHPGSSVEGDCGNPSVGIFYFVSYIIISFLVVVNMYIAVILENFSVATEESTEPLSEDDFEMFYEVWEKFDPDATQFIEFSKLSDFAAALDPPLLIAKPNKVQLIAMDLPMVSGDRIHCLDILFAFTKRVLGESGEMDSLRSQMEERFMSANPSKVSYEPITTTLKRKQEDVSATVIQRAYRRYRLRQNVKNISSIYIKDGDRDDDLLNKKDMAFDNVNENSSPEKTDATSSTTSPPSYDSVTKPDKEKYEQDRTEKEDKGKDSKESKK
T1 sequence (Q8NER1 whole entry): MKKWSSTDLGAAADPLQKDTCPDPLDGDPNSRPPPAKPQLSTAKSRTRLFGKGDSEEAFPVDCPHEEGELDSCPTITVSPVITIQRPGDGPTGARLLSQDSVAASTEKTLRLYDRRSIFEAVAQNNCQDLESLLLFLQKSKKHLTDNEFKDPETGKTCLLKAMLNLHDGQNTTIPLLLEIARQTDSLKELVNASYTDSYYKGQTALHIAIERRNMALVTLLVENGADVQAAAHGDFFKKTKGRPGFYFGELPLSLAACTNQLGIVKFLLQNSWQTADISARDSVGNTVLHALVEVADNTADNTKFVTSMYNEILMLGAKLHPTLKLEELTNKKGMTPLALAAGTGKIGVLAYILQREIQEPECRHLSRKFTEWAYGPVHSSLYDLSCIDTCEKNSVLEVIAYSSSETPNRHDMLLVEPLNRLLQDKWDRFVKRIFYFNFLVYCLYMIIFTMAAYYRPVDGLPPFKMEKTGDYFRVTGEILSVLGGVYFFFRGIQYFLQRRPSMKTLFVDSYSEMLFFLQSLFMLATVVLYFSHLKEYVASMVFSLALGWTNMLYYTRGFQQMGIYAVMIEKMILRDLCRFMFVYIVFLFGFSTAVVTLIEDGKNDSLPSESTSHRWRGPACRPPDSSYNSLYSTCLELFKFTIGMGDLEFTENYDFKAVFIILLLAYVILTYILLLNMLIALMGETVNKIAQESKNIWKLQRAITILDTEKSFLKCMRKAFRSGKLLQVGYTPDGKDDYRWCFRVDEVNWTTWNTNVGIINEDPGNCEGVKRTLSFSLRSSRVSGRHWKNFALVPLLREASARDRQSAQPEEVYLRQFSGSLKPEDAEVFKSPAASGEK

Take `COC(=O)[C@@H]1Cc2c([nH]c3ccccc23)[C@@H](c2ccccc2)N1Cc1ccccc1` [6a, (1R,3S)-Methyl 2-Benzyl-1-phenyl-2,3,4,9-tetrahydro-1H-pyrido[3,4-b]indole-3-carboxylate]: the “activity as agonist or antagonist on TRPV1” value (shortened to “activity … on TRPV1”) on hTRPV1 was “no activity as agonists or antagonists”. In addition, the IC50 in series [1] (setting [4]) is 1.3 ± 0.7 µM; on hNav1.7, > 10 µM. Besides, on hTRPA1, the “activity as agonist or antagonist on TRPA1” value (shortened to “activity … on TRPA1”) is “no activity as agonists or antagonists”.

For the compound `O=C1[C@@H]2Cc3c([nH]c4ccccc34)[C@H](c3ccc(F)cc3)N2C(=O)N1c1cccc(C(F)(F)F)c1` [36b, (5S,11aS)-5-(4-Fluorophenyl)-2-(3-(trifluoromethyl)phenyl)-5,6,11,11a-tetrahydro-1H-imidazo[1′,5′:1,6]pyrido[3,4-b]indole-1,3(2H)-dione], on hTRPV1, the “activity … on TRPV1” value is given as “no activity as agonists or antagonists”. In addition, the half-maximal inhibitory concentration (IC50) was 0.2 ± 0.2 µM in series [1] (setting [4]), 0.2 ± 0.2 µM in series [1] (setting [5]) and 0.3 ± 0.4 µM in series [1] (setting [6]). The “activity as agonist or antagonist on Nav1.7” value (shortened to “activity … on Nav1.7”) at hNav1.7 was “no activity as agonists or antagonists”. The percentage of epimerization result in series [2] (during patch-clamp electrophysiology assays) is reported as “negligible”. In addition, the “activity … on TRPA1” value at hTRPA1 is on record as “no activity as agonists or antagonists”.

`O=C1N[C@H](Cc2ccccc2)C(=O)N2Cc3[nH]c4ccccc4c3C[C@@H]12` [compound 23, (3R,12aS)-3-Benzyl-2,3,12,12a-tetrahydropyrazino[1′,2′:1,6]pyrido[3,4-b]indole-1,4(6H,7H)-dione]: on hTRPV1, the “activity … on TRPV1” value is “no activity as agonists or antagonists”. Besides, the IC50 in series [1] (setting [4]) was 0.4 ± 0.1 µM; in series [1] (setting [5]), 0.4 ± 0.1 µM; in series [1] (setting [6]) it was 0.3 µM. Also, on hNav1.7, the “activity … on Nav1.7” value is on record as “no activity as agonists or antagonists”. Besides, the “activity … on TRPA1” value on hTRPA1 is reported as “no activity as agonists or antagonists”.

Consider `O=C1[C@@H]2Cc3c([nH]c4ccccc34)[C@H](c3ccc(F)cc3)N2C(=O)N1c1ccc(F)cc1` [38b, (5S,11aS)-2,5-Bis(4-fluorophenyl)-5,6,11,11a-tetrahydro-1H-imidazo[1′,5′:1,6]pyrido[3,4-b]indole-1,3(2H)-dione], for which the “conversion of cis isomer to trans isomer” value in series [2] is “almost fully converted to the trans isomers”.

As to `COC(=O)CC[C@H]1N[C@H](C(=O)NCc2ccc(F)cc2)Cc2c1[nH]c1ccccc21` [11a, Methyl 3-((1R,3S)-3-((4-Fluorobenzyl)carbamoyl)-2,3,4,9-tetrahydro-1H-pyrido[3,4-b]indol-1-yl)propanoate], the “activity … on TRPV1” value on hTRPV1 is on record as “no activity as agonists or antagonists”. Moreover, the IC50 was 0.8 µM and 1.1 µM in series [1] (setting [4]); 1.1 ± 0.5 µM in series [1] (setting [5]). Moreover, the “activity … on Nav1.7” value on hNav1.7 was “no activity as agonists or antagonists”. Moreover, at hTRPA1, the “activity … on TRPA1” value is reported as “no activity as agonists or antagonists”. Further, in series [3], the “turnover in absence of metabolic cofactors” value was found to be 66.5 ± 3.8%.

As to `O=C1[C@@H]2Cc3c([nH]c4ccccc34)[C@H](c3ccc(F)cc3)N2C(=O)N1c1ccccc1F` [37b, (5S,11aS)-2-(2-Fluorophenyl)-5-(4-fluorophenyl)-5,6,11,11a-tetrahydro-1H-imidazo[1′,5′:1,6]pyrido[3,4-b]indole-1,3(2H)-dione], in series [2], the “conversion of cis isomer to trans isomer” value is listed as “almost fully converted to the trans isomers”.

As for `O=C1[C@H]2Cc3c([nH]c4ccccc34)[C@H](c3ccc(F)cc3)N2C(=O)N1Cc1ccccc1` [33a′, (5S,11aR)-2-Benzyl-5-(4-fluorophenyl)-5,6,11,11a-tetrahydro-1H-imidazo[1′,5′:1,6]pyrido[3,4-b]indole-1,3(2H)-dione], the half-inhibitory concentration (IC50) in series [1] (setting [4]) stood at 17.5 ± 1.4 µM.

Turning to `O=C1[C@H]2Cc3c([nH]c4ccccc34)[C@H](c3ccc(F)cc3)N2C(=O)N1c1cccc(C(F)(F)F)c1` [36a′, (5S,11aR)-5-(4-Fluorophenyl)-2-(3-(trifluoromethyl)phenyl)-5,6,11,11a-tetrahydro-1H-imidazo[1′,5′:1,6]pyrido[3,4-b]indole-1,3(2H)-dione], the 50% inhibitory concentration (IC50) in series [1] (setting [4]) is 7.8 ± 2.4 µM.

As for `O=C(NCc1ccc(F)cc1)[C@@H]1Cc2c([nH]c3ccccc23)CN1` [compound 9, (S)-N-(4-Fluorobenzyl)-2,3,4,9-tetrahydro-1H-pyrido[3,4-b]indole-3-carboxamide], at hTRPV1, the “activity … on TRPV1” value was “no activity as agonists or antagonists”. Moreover, the IC50 in series [1] (setting [4]) was 0.9 ± 0.4 µM; in series [1] (setting [5]), 0.9 ± 0.4 µM; in series [1] (setting [6]) it was 0.6 ± 1.3 µM; on hNav1.7, > 10 µM. For the same compound, on hTRPA1, the “activity … on TRPA1” value is reported as “no activity as agonists or antagonists”.

On to `O=C1[C@H]2Cc3c([nH]c4ccccc34)[C@H](c3ccc(F)cc3)N2C(=O)N1c1ccc(F)cc1` [38a′, (5S,11aR)-2,5-Bis(4-fluorophenyl)-5,6,11,11a-tetrahydro-1H-imidazo[1′,5′:1,6]pyrido[3,4-b]indole-1,3(2H)-dione], for which the IC50 in series [1] (setting [4]) came out at 7.2 ± 0.9 µM.

As for `CC(C)C[C@H]1N[C@H](C(=O)NCc2ccc(F)cc2)Cc2c1[nH]c1ccccc21` [10a, (1R,3S)-N-(4-Fluorobenzyl)-1-isobutyl-2,3,4,9-tetrahydro-1H-pyrido[3,4-b]indole-3-carboxamide], the IC50 in series [1] (setting [4]) was found to be 4.6 ± 1.3 µM.

Consider `COC(=O)CC[C@@H]1N[C@H](C(=O)NCc2ccc(F)cc2)Cc2c1[nH]c1ccccc21` [11b, Methyl 3-((1S,3S)-3-((4-Fluorobenzyl)carbamoyl)-2,3,4,9-tetrahydro-1H-pyrido[3,4-b]indol-1-yl)propanoate], for which the IC50 in series [1] (setting [4]) was 3 ± 1.2 µM.

As for `Cc1ccc(CN2C(=O)[C@H]3Cc4c([nH]c5ccccc45)[C@H](c4ccc(Cl)cc4)N3C2=O)cc1` [30a′, (5S,11aR)-5-(4-Chlorophenyl)-2-(4-methylbenzyl)-5,6,11,11a-tetrahydro-1H-imidazo[1′,5′:1,6]pyrido[3,4-b]indole-1,3(2H)-dione], the IC50 in series [1] (setting [4]) came out at 2.3 ± 0.8 µM.

`O=C1NCC(=O)N2Cc3[nH]c4ccccc4c3C[C@@H]12` [compound 21, (S)-2,3,6,7,12,12a-Hexahydropyrazino[1′,2′:1,6]pyrido[3,4-b]indole-1,4-dione]: in series [1] (setting [4]), the IC50 was 11.4 ± 1.6 µM.
